From article PMC9120017, “Inhibition mechanism of the chloride channel TMEM16A by the pore blocker 1PBC” (Nature Communications, 2022)
Where two headings read alike, the source gives them in different places.

Molecular target: T1, wild-type mouse TMEM16A (Mus musculus, UniProt Q8BHY3)
T1 construct: expressed in transfected cells; host or cells: HEK293T
T1 sequence (Q8BHY3 1-960): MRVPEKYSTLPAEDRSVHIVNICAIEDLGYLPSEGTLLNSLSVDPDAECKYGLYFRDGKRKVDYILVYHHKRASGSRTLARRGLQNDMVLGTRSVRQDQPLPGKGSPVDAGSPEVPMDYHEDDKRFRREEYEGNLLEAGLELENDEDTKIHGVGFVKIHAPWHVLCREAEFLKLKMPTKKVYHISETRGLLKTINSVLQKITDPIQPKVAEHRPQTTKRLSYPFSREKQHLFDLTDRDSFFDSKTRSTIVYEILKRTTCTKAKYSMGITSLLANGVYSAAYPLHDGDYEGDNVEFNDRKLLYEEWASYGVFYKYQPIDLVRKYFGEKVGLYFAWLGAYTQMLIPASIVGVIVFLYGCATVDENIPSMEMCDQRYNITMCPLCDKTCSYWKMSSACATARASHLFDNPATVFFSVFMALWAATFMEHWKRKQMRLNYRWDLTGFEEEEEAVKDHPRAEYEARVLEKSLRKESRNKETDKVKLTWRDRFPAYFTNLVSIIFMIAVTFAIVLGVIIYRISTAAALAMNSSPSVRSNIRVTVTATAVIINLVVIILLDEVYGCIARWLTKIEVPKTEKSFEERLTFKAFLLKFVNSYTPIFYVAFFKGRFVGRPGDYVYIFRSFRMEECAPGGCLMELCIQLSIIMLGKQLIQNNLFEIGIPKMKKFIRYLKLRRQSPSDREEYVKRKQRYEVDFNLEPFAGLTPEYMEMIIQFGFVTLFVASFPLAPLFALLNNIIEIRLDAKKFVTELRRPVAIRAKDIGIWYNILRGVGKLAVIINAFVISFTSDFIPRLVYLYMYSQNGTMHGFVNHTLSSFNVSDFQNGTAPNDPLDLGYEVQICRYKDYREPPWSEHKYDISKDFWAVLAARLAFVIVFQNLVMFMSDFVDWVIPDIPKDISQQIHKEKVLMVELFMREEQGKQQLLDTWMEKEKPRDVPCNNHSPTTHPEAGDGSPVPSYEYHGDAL
Test: Inside-out patch recording of 1PBC block, wild-type TMEM16A
Assay type: cell-based
Description: HEK293T cells (ATCC CRL-1573) were maintained in Dulbecco’s modified Eagle’s medium (DMEM; Sigma-Aldrich) supplemented with 10 U ml^−1 penicillin, 0.1 mg ml^−1 streptomycin (Sigma-Aldrich), 2 mM L-glutamine (Sigma-Aldrich), and 10% FBS (Sigma-Aldrich) in a humidified atmosphere containing 5% CO2 at 37 °C. HEK293S GnTI^− cells (ATCC CRL-3022) were maintained in HyClone HyCell TransFx-H medium (GE Healthcare) supplemented with 10 U ml^−1 penicillin, 0.1 mg ml^−1 streptomycin, 4 mM L-glutamine, 0.15% poloxamer 188 (Sigma-Aldrich), and 1% FBS in an atmosphere containing 5% CO2 at 185 rpm at 37 °C. The ac splice variant of mouse TMEM16A (UniProt ID: Q8BHY3), mouse TMEM16B (UniProt ID: Q8CFW1), or mouse TMEM16F (UniProt ID: Q6P9J9) bearing a 3C cleavage site, a Venus YFP, a Myc tag, and a Streptavidin-binding peptide (SBP) downstream of the open reading frame in a modified pcDNA3.1 vector (Invitrogen) were used as described previously[21],[31]. Mutations were introduced using a modified QuikChange method[58] and were verified by sequencing.
HEK293T cells were transfected with 3–4 μg DNA per 6 cm Petri dish using the calcium phosphate co-precipitation method and were used within 24–96 h after transfection. Recordings were performed on inside-out patches excised from HEK293T cells expressing the construct of interest. Patch pipettes were pulled from borosilicate glass capillaries (O.D. 1.5 mm, I.D. 0.86 mm, Sutter Instrument) and were fire-polished with a microforge (Narishige) before use. Pipette resistance was typically 3–8 MΩ when filled with the recording solutions detailed below. Seal resistance was typically 4 GΩ or higher. Voltage-clamp recordings were made using Axopatch 200B, Digidata 1550, and Clampex 10.7 (Molecular Devices). Analog signals were filtered with the in-built 4-pole Bessel filter at 10 kHz and were digitized at 20 kHz. Solution exchange was achieved using a gravity-fed system through a theta glass pipette mounted on an ultra-fast piezo-driven stepper (Siskiyou). […] All recordings were performed at 20 °C.
A symmetrical ionic condition was used throughout. Stock solution with Ca^2+-EGTA contained 150 mM NaCl, 5.99 mM Ca(OH)2, 5 mM EGTA, and 10 mM HEPES at pH 7.40. Stock solution with EGTA contained 150 mM NaCl, 5 mM EGTA, and 10 mM HEPES at pH 7.40. Free Ca^2+ concentrations were adjusted by mixing the stock solutions at the required ratios calculated using the WEBMAXC program (http://web.stanford.edu/~cpatton/webmaxcS.htm). Patch pipettes were filled with the stock solution with Ca^2+-EGTA, which has a free Ca^2+ concentration of 1 mM. 1PBC (ChemBridge) stock was reconstituted in anhydrous DMSO (Sigma-Aldrich) at 100 mM and stored at −20 °C. Working solutions with 1PBC were prepared by serial dilution. Unless otherwise stated, experiments were performed at a saturating Ca^2+ concentration as shown in Supplementary Table 1 and the primary data were corrected for current rundown as described previously[21],[25].
Concentration-response relations, obtained from the ratio of the I-V plots before and after the application of the blocker, were fitted to the Hill equation,1 I/Imax=1/1+IC50/[blocker]^h where I/Imax is the normalized current responses, IC50 defines the concentration at which inhibition is at its half-maximum, and h is the Hill coefficient.

Q: `N#Cc1c(C(F)(F)F)cc(O)n2c1nc1ccccc12` [1PBC] was tested. Which “Steady-state current (normalized)” value (10 µM 1PBC, -60 mV, 2 µM Ca2+) did it give?
A: The value was -0.2628.

Q: What about the remaining activity at 10 µM (10 µM 1PBC, -60 mV, 2 µM Ca2+, read-out: I/Imax) of the same compound?
A: Its remaining activity at 10 µM is 45.4%.

Q: What about the “Steady-state current (normalized)” value (10 µM 1PBC, -80 mV, 2 µM Ca2+) of the same compound?
A: Its value is -0.388.

Q: And the remaining activity at 10 µM (10 µM 1PBC, -80 mV, 2 µM Ca2+, read-out: I/Imax)?
A: Its remaining activity at 10 µM is 50.6%.

Q: What about the “Steady-state current (normalized)” value (10 µM 1PBC, -100 mV, 2 µM Ca2+) of the same compound?
A: The value was -0.5211.

Q: What about the remaining activity at 10 µM (10 µM 1PBC, -100 mV, 2 µM Ca2+, read-out: I/Imax) of the same compound?
A: Its remaining activity at 10 µM is 54.8%.

Q: What about the “Steady-state current (normalized)” value (10 µM 1PBC, -120 mV, 2 µM Ca2+) of the same compound?
A: Its value is -0.6616.

Q: And the remaining activity at 10 µM (10 µM 1PBC, -120 mV, 2 µM Ca2+, read-out: I/Imax)?
A: The remaining activity at 10 µM was 59.1%.

Q: And the “Steady-state current (normalized)” value (10 µM 1PBC, -140 mV, 2 µM Ca2+)?
A: Its value is -0.7984.

Q: What about the remaining activity at 10 µM (10 µM 1PBC, -140 mV, 2 µM Ca2+, read-out: I/Imax) of the same compound?
A: Its remaining activity at 10 µM is 62.2%.

Q: What about the “Steady-state current (normalized)” value (30 µM 1PBC, 0 mV, 2 µM Ca2+) of the same compound?
A: Its value is 0.0002811.

Q: And the remaining activity at 30 µM (30 µM 1PBC, 0 mV, 2 µM Ca2+, read-out: I/Imax)?
A: Its remaining activity at 30 µM is 11.5%.

Q: What about the “I/Imax scaled to open probability” value (30 µM 1PBC, 400 nM Ca2+, 80 mV) of the same compound?
A: Its value is 0.04177.

Q: What about the “I/Imax scaled to open probability” value (30 µM 1PBC, 800 nM Ca2+, 80 mV) of the same compound?
A: Its value is 0.04061.

Q: What about the “I/Imax scaled to open probability” value (30 µM 1PBC, 2 µM Ca2+, 80 mV) of the same compound?
A: The value was 0.05533.

Q: What about the “Steady-state current (normalized)” value (30 µM 1PBC, 20 mV, 2 µM Ca2+) of the same compound?
A: Its value is 0.01874.

Q: And the remaining activity at 30 µM (30 µM 1PBC, 20 mV, 2 µM Ca2+, read-out: I/Imax)?
A: Its remaining activity at 30 µM is 9.63%.

Q: And the “Steady-state current (normalized)” value (30 µM 1PBC, 40 mV, 2 µM Ca2+)?
A: The value was 0.03065.

Q: And the remaining activity at 30 µM (30 µM 1PBC, 40 mV, 2 µM Ca2+, read-out: I/Imax)?
A: The remaining activity at 30 µM was 8.13%.

Q: What about the “Steady-state current (normalized)” value (30 µM 1PBC, 60 mV, 2 µM Ca2+) of the same compound?
A: The value was 0.03882.

Q: And the remaining activity at 30 µM (30 µM 1PBC, 60 mV, 2 µM Ca2+, read-out: I/Imax)?
A: The remaining activity at 30 µM was 7.03%.

Q: What about the “Steady-state current (normalized)” value (30 µM 1PBC, 80 mV, 2 µM Ca2+) of the same compound?
A: The value was 0.04513.

Q: What about the remaining activity at 30 µM (30 µM 1PBC, 80 mV, 2 µM Ca2+, read-out: I/Imax) of the same compound?
A: The remaining activity at 30 µM was 6.38%.

Q: What about the “Steady-state current (normalized)” value (30 µM 1PBC, 100 mV, 2 µM Ca2+) of the same compound?
A: The value was 0.0498.

Q: What about the remaining activity at 30 µM (30 µM 1PBC, 100 mV, 2 µM Ca2+, read-out: I/Imax) of the same compound?
A: Its remaining activity at 30 µM is 5.86%.

Q: And the “Steady-state current (normalized)” value (30 µM 1PBC, 120 mV, 2 µM Ca2+)?
A: Its value is 0.05715.

Q: And the remaining activity at 30 µM (30 µM 1PBC, 120 mV, 2 µM Ca2+, read-out: I/Imax)?
A: The remaining activity at 30 µM was 5.87%.

Q: And the “Steady-state current (normalized)” value (30 µM 1PBC, 140 mV, 2 µM Ca2+)?
A: The value was 0.0661.

Q: And the remaining activity at 30 µM (30 µM 1PBC, 140 mV, 2 µM Ca2+, read-out: I/Imax)?
A: The remaining activity at 30 µM was 6.08%.

Q: And the “Steady-state current (normalized)” value (30 µM 1PBC, -20 mV, 2 µM Ca2+)?
A: Its value is -0.02579.

Q: What about the remaining activity at 30 µM (30 µM 1PBC, -20 mV, 2 µM Ca2+, read-out: I/Imax) of the same compound?
A: The remaining activity at 30 µM was 13.4%.

Q: And the “Steady-state current (normalized)” value (30 µM 1PBC, -40 mV, 2 µM Ca2+)?
A: Its value is -0.06545.

Q: What about the remaining activity at 30 µM (30 µM 1PBC, -40 mV, 2 µM Ca2+, read-out: I/Imax) of the same compound?
A: Its remaining activity at 30 µM is 16.9%.

Q: And the “Steady-state current (normalized)” value (30 µM 1PBC, -60 mV, 2 µM Ca2+)?
A: Its value is -0.1171.

Q: What about the remaining activity at 30 µM (30 µM 1PBC, -60 mV, 2 µM Ca2+, read-out: I/Imax) of the same compound?
A: The remaining activity at 30 µM was 20.2%.

Q: What about the “Steady-state current (normalized)” value (30 µM 1PBC, -80 mV, 2 µM Ca2+) of the same compound?
A: The value was -0.1843.

Q: What about the remaining activity at 30 µM (30 µM 1PBC, -80 mV, 2 µM Ca2+, read-out: I/Imax) of the same compound?
A: Its remaining activity at 30 µM is 24%.

Q: And the “Steady-state current (normalized)” value (30 µM 1PBC, -100 mV, 2 µM Ca2+)?
A: The value was -0.264.

Q: And the remaining activity at 30 µM (30 µM 1PBC, -100 mV, 2 µM Ca2+, read-out: I/Imax)?
A: The remaining activity at 30 µM was 27.8%.

Q: What about the “Steady-state current (normalized)” value (30 µM 1PBC, -120 mV, 2 µM Ca2+) of the same compound?
A: Its value is -0.3545.

Q: What about the remaining activity at 30 µM (30 µM 1PBC, -120 mV, 2 µM Ca2+, read-out: I/Imax) of the same compound?
A: Its remaining activity at 30 µM is 31.7%.

Q: And the “Steady-state current (normalized)” value (30 µM 1PBC, -140 mV, 2 µM Ca2+)?
A: Its value is -0.4476.

Q: And the remaining activity at 30 µM (30 µM 1PBC, -140 mV, 2 µM Ca2+, read-out: I/Imax)?
A: Its remaining activity at 30 µM is 34.8%.

Q: What about the “Steady-state current (normalized)” value (100 µM 1PBC, 0 mV, 2 µM Ca2+) of the same compound?
A: The value was 0.0001085.

Q: And the remaining activity at 100 µM (100 µM 1PBC, 0 mV, 2 µM Ca2+, read-out: I/Imax)?
A: Its remaining activity at 100 µM is 4.44%.

Q: And the “I/Imax scaled to open probability” value (100 µM 1PBC, 400 nM Ca2+, 80 mV)?
A: The value was 0.01539.

Q: What about the “I/Imax scaled to open probability” value (100 µM 1PBC, 800 nM Ca2+, 80 mV) of the same compound?
A: The value was 0.01603.
